Assay: Principal components analysis of amino acid physical properties from 31 studies
Conditions: for Prin1: first principal component, index of amino acid polarity or hydrophobicity, most hydrophobic highest; for Prin2: second principal component, related to size or volume, smallest has highest score; for Prin3: third principal component
Excerpt: In some cases, principal components of amino acids are utilized to accurately predict binding affinities of sub-sequences of amino acids within the proteins to all MHC-I and MHC-II receptors. Principal Components Analysis is a mathematical process that is used in many different scientific fields and which reduces the dimensionality of a set of data. (Bishop, C.M., Neural Networks for Pattern Recognition. Oxford University Press, Oxford 1995. Bouland, H. and Kamp,Y., Biological Cybernetics 1988. 59: 291-294.). Derivation of principal components is a linear transformation that locates directions of maximum variance in the original input data, and rotates the data along these axes. Typically, the first several principal components contain the most information. Principal components is particularly useful for large datasets with many different variables. Using principal components provides a way to picture the structure of the data as completely as possible by using as few variables as possible. For n original variables, n principal components are formed as follows: The first principal component is the linear combination of the standardized original variables that has the greatest possible variance. Each subsequent principal component is the linear combination of the standardized original variables that has the greatest possible variance and is uncorrelated with all previously defined components. Further, the principal components are scale-independent in that they can be developed from different types of measurements. For example, datasets from HPLC retention times (time units) or atomic radii ([…]) can be consolidated to produce principal components. Another characteristic is that principal components are weighted appropriately for their respective contributions to the response and one common use of principal components is to develop appropriate weightings for regression parameters in multivariate regression analysis. Outside the field of immunology, principal components analysis (PCA) is most widely used in regression analysis. Initial tests were conducted using the principal components in a multiple regression partial least squares (PLS) approach (Wold, S., Sjorstrom,M., and Eriksson,L., Chemometrics and Intelligent Laboratory Systems 2001. 58: 109-130.). Principal component analysis can be represented in a linear network. PCA can often extract a very small number of components from quite high-dimensional original data and still retain the important structure.
Accordingly, in some cases physical properties of amino acids are used for subsequent analysis. The compiled physical properties are available at a proteomics resource website (expasy.org/tools/protscale.html). In some cases, the data for each of the 20 different amino acids from these studies are tabulated, resulting in 20 x 31 different datapoints, each providing a unique estimate of a physical characteristic of that amino acid. The power of principal component analysis lies in the fact that the results of all of these studies can be combined to produce a set of mathematical properties of the amino acids which have been derived by a wide array of independent methodologies. The patterns derived in this way are similar to those of Wold et. al. but the absolute numbers are different. The physicochemical properties derived in the studies used for this calculation are shown in (Table 2). […] All subsequent work described herein is based on use of the first three principal components.
From this it can be seen that the first principal component (Prin1) is an index of amino acid polarity or hydrophobicity; the most hydrophobic amino acids have the highest numerical value. The second principal component (Prin2) is related to the size or volume of the amino acid, with the smallest having the highest score. […]

| SMILES | Prin1 | Prin2 | Prin3 |
| --- | --- | --- | --- |
| NC(Cc1c[nH]cn1)C(=O)O (stereo not drawn) [H] | -2.55 | -1.00 | -1.94 |
| O=C(O)C1CCCN1 (stereo not drawn) [P] | -0.03 | -0.36 | 1.87 |
| NCCCCC(N)C(=O)O (stereo not drawn) [K] | -6.68 | -1.32 | 1.16 |
| CC(O)C(N)C(=O)O (stereo not drawn) [T] | -1.42 | 0.80 | 0.94 |
| NC(=O)CC(N)C(=O)O (stereo not drawn) [N] | -4.35 | 0.21 | 0.30 |
| NC(=O)CCC(N)C(=O)O (stereo not drawn) [Q] | -3.97 | -0.47 | 0.15 |
| N=C(N)NCCCC(N)C(=O)O (stereo not drawn) [R] | -6.30 | -2.93 | -0.91 |
| NC(CC(=O)O)C(=O)O (stereo not drawn) [D] | -6.04 | 0.03 | -0.18 |
| NCC(=O)O [G] | -0.76 | 3.08 | 1.21 |
| NC(CCC(=O)O)C(=O)O (stereo not drawn) [E] | -5.70 | 0.34 | -1.46 |
| CC(N)C(=O)O (stereo not drawn) [A] | 0.72 | 2.48 | 1.42 |
